Results on 43 compounds are retold here after patent US20250171438A1 (Agios Pharmaceuticals, Inc., priority 2022, published 2025).

As a reminder, the AC50 is the concentration giving half of the maximal activity seen.

For the first experiment, the target named is T1, human PAH with the R408W mutation (Homo sapiens, UniProt P00439, R408W).
T1 construct: expressed in transfected cells
T1 sequence (P00439 1-452 R408W): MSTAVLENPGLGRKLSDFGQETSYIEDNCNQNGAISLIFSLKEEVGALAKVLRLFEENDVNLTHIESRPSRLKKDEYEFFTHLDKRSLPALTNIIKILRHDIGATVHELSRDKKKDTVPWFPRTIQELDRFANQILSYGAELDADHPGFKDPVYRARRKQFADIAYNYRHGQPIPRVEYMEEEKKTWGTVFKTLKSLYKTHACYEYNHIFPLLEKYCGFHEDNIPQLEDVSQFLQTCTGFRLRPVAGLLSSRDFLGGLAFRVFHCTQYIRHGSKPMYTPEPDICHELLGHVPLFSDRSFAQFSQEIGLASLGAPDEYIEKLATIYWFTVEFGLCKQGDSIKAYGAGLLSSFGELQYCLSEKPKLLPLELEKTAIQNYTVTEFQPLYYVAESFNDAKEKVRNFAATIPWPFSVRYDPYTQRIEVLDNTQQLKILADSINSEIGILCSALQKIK
Nature of the experiment: Cell Based Phenylalanine Flux Assay. Particulars: A375 cells expressing human R408W PAH; 24 hrs compound incubation; 13C-Tyrosine by LC-MS; average where tested multiple times; read-out: AC50.
Method: Compounds were resuspended in DMSO, and 2-fold serial dilutions were performed to generate a 10-point dose curve. Compounds were added to plated cells in a total volume of 100 pal, and a final DMSO concentration of 0.5%. Each compound was tested in duplicate. Following compound addition, cells were placed in a 5% CO2, 37° C. tissue culture incubator for 24 hrs. After the incubation period, 20 μM sepiapterin and 800 μM 13C9,15N-Phenylalanine were added. After 4 hours, cell media was removed. An aliquot of 10 μl of cell media was combined with 200 μl of extraction buffer (80% acetonitrile/20% H2O) for each well. Determination of ^13C-Tyrosine concentration was assessed by liquid chromatography mass spectrometry.
Where a compound was tested multiple times, the average value of the tests is reported.
As to `O=C(c1nnc(-c2ccccn2)o1)N1CCc2[nH]cnc2[C@H]1c1nc2cc(F)ccc2s1` [Example 1748, (S)-(4-(5-fluorobenzo[d]thiazol-2-yl)-6,7-dihydro-1H-imidazo[4,5-c]pyridin-5(4H)-yl)(5-(pyridin-2-yl)-1,3,4-oxadiazol-2-yl)methanone], the half-maximal activity concentration (AC50) was below 0.5 µM.

With `Cn1nc(Cl)cc1C(=O)N1CCc2[nH]cnc2[C@H]1c1nc2ccccc2s1` [Example 1923], the concentration at half-maximal activity (AC50) is below 0.5 µM.

As for `Cc1nc(C(C)(C)C)oc1C(=O)N1CCc2[nH]cnc2[C@@H]1c1nc2ccccc2s1` [Example 1432, (R)-(4-(benzo[d]thiazol-2-yl)-6,7-dihydro-1H-imidazo[4,5-c]pyridin-5(4H)-yl)(2-(tert-butyl)-4-methyloxazol-5-yl)methanone], the AC50 is 1 to 5 µM.

On to `Clc1cnc(CN2CCc3[nH]cnc3[C@@H]2c2nc3ccccc3[nH]2)s1` [Example 979, (R)-2-((4-(1H-benzo[d]imidazol-2-yl)-6,7-dihydro-1H-imidazo[4,5-c]pyridin-5(4H)-yl)methyl)-5-chlorothiazole], for which the AC50 was above 5 µM.

Consider `CN1CCN(c2nc(C(F)(F)F)c(C(=O)N3CCc4[nH]cnc4[C@H]3c3nc4ccccc4s3)o2)CC1` [Example 1573], for which the AC50 is below 0.5 µM.

For `Cn1nc(CF)cc1C(=O)N1CCc2[nH]cnc2[C@H]1c1nc2c(F)cccc2s1` [Example 1917, (S)-(4-(4-fluorobenzo[d]thiazol-2-yl)-6,7-dihydro-1H-imidazo[4,5-c]pyridin-5(4H)-yl)(3-(fluoromethyl)-1-methyl-1H-pyrazol-5-yl)methanone], the AC50 is 0.5 to 1 µM.

As for `Cc1cccc2sc([C@@H]3c4nc[nH]c4CCN3C(=O)c3ocnc3C(F)F)nc12` [Example 2011], the AC50 was below 0.5 µM.

Take `Cc1nc(-c2ccccn2)oc1C(=O)N1CCc2[nH]cnc2[C@@H]1c1nc2c(F)cccc2s1` [Example 1446, (R)-(4-(4-fluorobenzo[d]thiazol-2-yl)-6,7-dihydro-1H-imidazo[4,5-c]pyridin-5(4H)-yl)(4-methyl-2-(pyridin-2-yl)oxazol-5-yl)methanone]: the AC50 is above 5 µM.

Consider `Cc1ccc2sc([C@H]3c4nc[nH]c4CCN3C(=O)c3cnco3)nc2c1` [Example 2174, (R)-(4-(5-methylbenzo[d]thiazol-2-yl)-6,7-dihydro-1H-imidazo[4,5-c]pyridin-5(4H)-yl)(oxazol-5-yl)methanone], for which the AC50 is above 5 µM.

On to `Cn1nccc1C(=O)N1CCc2[nH]cnc2[C@H]1c1nc2ccccc2s1` [Example 1839], for which the AC50 is below 0.5 µM.

Regarding `c1ccc2[nH]c([C@H]3c4nc[nH]c4CCN3Cc3nccs3)nc2c1` (single isomer, unassigned) [Example 926], the AC50 is above 5 µM.

For `O=C(c1cn(CC(F)(F)F)nc1C(F)F)N1CCc2[nH]cnc2[C@@H]1c1nc2ccccc2s1` [Example 1986, (R)-(4-(benzo[d]thiazol-2-yl)-6,7-dihydro-1H-imidazo[4,5-c]pyridin-5(4H)-yl)(3-(difluoromethyl)-1-(2,2,2-trifluoroethyl)-1H-pyrazol-4-yl)methanone], the AC50 lay in the range of 1 to 5 µM.

Turning to `Cn1cc(-c2ncc(C(=O)N3CCc4[nH]cnc4[C@H]3c3nc4ccccc4s3)s2)c(C2CC2)n1` [Example 1385], the half-maximal activity concentration (AC50) was below 0.5 µM.

Regarding `O=C(CCc1ccc(F)cc1)N1CCc2[nH]cnc2[C@H]1c1nc2ccccc2s1` [Example 1005], the AC50 was in the range of 0.5 to 1 µM.

`O=C(c1ccno1)N1CCc2[nH]cnc2[C@@H]1c1nc2ccccc2s1` [Example 1124, (R)-(4-(benzo[d]thiazol-2-yl)-6,7-dihydro-1H-imidazo[4,5-c]pyridin-5(4H)-yl)(isoxazol-5-yl)methanone]: the AC50 was above 5 µM.

Take `N#Cc1nn2cc(Br)ccc2c1C(=O)N1CCc2[nH]cnc2[C@H]1c1nc2ccccc2s1` [Example 1779, (S)-3-(4-(benzo[d]thiazol-2-yl)-4,5,6,7-tetrahydro-1H-imidazo[4,5-c]pyridine-5-carbonyl)-6-bromopyrazolo[1,5-a]pyridine-2-carbonitrile]: the concentration at half-maximal activity (AC50) is below 0.5 µM.

Turning to `Cc1c(C(=O)N2CCc3[nH]cnc3[C@H]2c2nc3c(F)cccc3s2)cnn1-c1ccccn1` [Example 1933, (S)-(4-(4-fluorobenzo[d]thiazol-2-yl)-6,7-dihydro-1H-imidazo[4,5-c]pyridin-5(4H)-yl)(5-methyl-1-(pyridin-2-yl)-1H-pyrazol-4-yl)methanone], the half-maximal activity concentration (AC50) was in the range of 1 to 5 µM.

With `O=C(c1cnn2c(Br)cccc12)N1CCc2[nH]cnc2[C@@H]1c1nc2ccccc2s1` [Example 1070, (R)-(4-(benzo[d]thiazol-2-yl)-6,7-dihydro-1H-imidazo[4,5-c]pyridin-5(4H)-yl)(7-bromopyrazolo[1,5-a]pyridin-3-yl)methanone], the half-maximal activity concentration (AC50) is 1 to 5 µM.

In the case of `O=C(CC1CC(F)C1)N1CCc2[nH]cnc2[C@H]1c1nc2ccccc2s1` (stereo partly shown) [Example 1245], the AC50 is below 0.5 µM.

Turning to `O=C(c1oc(CCN2CC(F)C2)nc1C(F)(F)F)N1CCc2[nH]cnc2[C@H]1c1nc2c(F)cccc2s1` [Example 1665], the AC50 was below 0.5 µM.

For the compound `Cn1nc(Cl)cc1C(=O)N1CCc2[nH]cnc2[C@@H]1c1nc2c(F)cccc2s1` [Example 1722, (R)-(3-chloro-1-methyl-1H-pyrazol-5-yl)(4-(4-fluorobenzo[d]thiazol-2-yl)-6,7-dihydro-1H-imidazo[4,5-c]pyridin-5(4H)-yl)methanone], the AC50 lay within 1 to 5 µM.

Turning to `Cc1nc(C(C)(C)F)oc1C(=O)N1CCc2[nH]cnc2[C@H]1c1nc2c(F)cccc2s1` [Example 1499, (S)-(4-(4-fluorobenzo[d]thiazol-2-yl)-6,7-dihydro-1H-imidazo[4,5-c]pyridin-5(4H)-yl)(2-(2-fluoropropan-2-yl)-4-methyloxazol-5-yl)methanone], the AC50 was below 0.5 µM.

For the compound `O=C(c1oc(C2(O)CC2)nc1C(F)(F)F)N1CCc2[nH]cnc2[C@@H]1c1nc2c(F)cccc2s1` [Example 2186, (R)-(4-(4-fluorobenzo[d]thiazol-2-yl)-1,4,6,7-tetrahydro-5H-imidazo[4,5-c]pyridin-5-yl)(2-(1-hydroxycyclopropyl)-4-(trifluoromethyl)oxazol-5-yl)methanone], the AC50 was in the range of 1 to 5 µM.

For `O=C(c1nncs1)N1CCc2[nH]cnc2[C@@H]1c1nc2ccccc2s1` [Example 1067, (R)-(4-(benzo[d]thiazol-2-yl)-6,7-dihydro-1H-imidazo[4,5-c]pyridin-5(4H)-yl)(1,3,4-thiadiazol-2-yl)methanone], the concentration at half-maximal activity (AC50) is above 5 µM.

Consider `O=C(c1oc(C2(O)CC2)nc1C(F)F)N1CCc2[nH]cnc2[C@@H]1c1nc2c(F)cccc2s1` [Example 1996, (R)-(4-(difluoromethyl)-2-(1-hydroxycyclopropyl)oxazol-5-yl)(4-(4-fluorobenzo[d]thiazol-2-yl)-6,7-dihydro-1H-imidazo[4,5-c]pyridin-5(4H)-yl)methanone], for which the AC50 was 1 to 5 µM.

Staying with this experiment, now noted: A375 cells expressing human R408W PAH; 24 hrs with compound; 13C-Tyrosine by LC-MS; average where tested multiple times; read-out: AC50.
For `Cc1cnc(C(=O)N2CCc3[nH]cnc3[C@H]2c2nc3ccccc3[nH]2)s1` [(S)-(4-(1H-benzo[d]imidazol-2-yl)-1,4,6,7-tetrahydro-5H-imidazo[4,5-c]pyridin-5-yl)(5-methylthiazol-2-yl)methanone], the half-maximal activity concentration (AC50) lay within 1 to 5 µM.

With `Cn1nc(N)cc1C(=O)N1CCc2[nH]cnc2C1c1nc2c(F)cccc2s1` (stereo not shown), the half-maximal activity concentration (AC50) was above 5 µM.

With `O=C(c1cnn2cc(Cl)ccc12)N1CCc2nc[nH]c2C1c1nc2cc(F)ccc2s1` (stereo not shown), the half-maximal activity concentration (AC50) was 1 to 5 µM.

As to `Cn1ncc(C(=O)N2CCc3[nH]cnc3C2c2nc3c(F)cccc3s2)c1N` (stereo not shown), the half-maximal activity concentration (AC50) is above 5 µM.

On to `Cc1cccc2sc(C3c4nc[nH]c4CCN3C(=O)c3cnn(C)c3Cl)nc12` (stereo not shown), for which the AC50 lay within 1 to 5 µM.

As for `O=C(c1ccon1)N1CCc2[nH]cnc2C1c1nc2ccccc2s1` (stereo not shown), the AC50 lay in the range of 1 to 5 µM.

Regarding `O=C(c1cnn2cc(Cc3ccccc3)ccc12)N1CCc2[nH]cnc2C1c1nc2ccccc2s1` (stereo not shown), the AC50 was above 5 µM.

In the case of `Cc1nc(-c2ccccn2)oc1C(=O)N1CC(C)c2[nH]cnc2C1c1nc2ccccc2s1` (stereo not shown), the concentration at half-maximal activity (AC50) was 1 to 5 µM.

With `O=C(C1CN(c2ccccn2)C1)N1CCc2[nH]cnc2C1c1nc2c(F)cccc2s1` (stereo not shown), the AC50 lay within 1 to 5 µM.

Turning to `Cn1ncc(C(=O)N2CCc3[nH]cnc3C2c2nc3c(F)cccc3s2)c1C#N` (stereo not shown), the AC50 was above 5 µM.

As for `Cc1nc(CCC2CC2)oc1C(=O)N1CCCc2[nH]cnc2C1c1nc2ccccc2s1` (stereo not shown), the AC50 was above 5 µM.

For the compound `O=C(c1cnn2c(Br)cccc12)N1CCc2[nH]cnc2C1c1nc2ccc(Br)cc2[nH]1` (stereo not shown), the concentration at half-maximal activity (AC50) was above 5 µM.

For `Cn1ncnc1C(=O)N1CCc2[nH]cnc2C1c1nc2c(F)cccc2s1` (stereo not shown), the AC50 is 1 to 5 µM.

With `COCCc1ncc(C(=O)N2CC(C)c3[nH]cnc3C2c2nc3ccccc3s2)o1` (stereo not shown), the AC50 lay within 1 to 5 µM.

Take `O=C(Cc1ncc(-c2ccccc2)s1)N1CCc2[nH]cnc2C1c1nc2ccccc2s1` (stereo not shown): the concentration at half-maximal activity (AC50) is above 5 µM.

`Cn1ncc(C(=O)N2CCc3[nH]cnc3C2c2nc3c(F)cccc3s2)n1` (stereo not shown): the AC50 is above 5 µM.

Take `O=C(c1cc2ccccn2n1)N1CCc2[nH]cnc2[C@H]1c1nc2ccccc2[nH]1` [(S)-(4-(1H-benzo[d]imidazol-2-yl)-6,7-dihydro-1H-imidazo[4,5-c]pyridin-5(4H)-yl)(pyrazolo[1,5-a]pyridin-2-yl)methanone]: the half-maximal activity concentration (AC50) was above 5 µM.

Still in this experiment, the particulars now being: AC50, A375 cells expressing human R408W PAH; 24 hrs with compound; 13C-Tyrosine by LC-MS; average where tested multiple times.
On to `Cc1nnc(C(=O)N2CCc3[nH]cnc3C2c2nc3ccc(Cl)cc3[nH]2)s1` (stereo not shown), for which the concentration at half-maximal activity (AC50) is 1 to 5 µM.
